Assay results published in ChEMBL document CHEMBL5154746, “Antibacterial Activity of Metergoline Analogues: Revisiting the Ergot Alkaloid Scaffold for Antibiotic Discovery” (2022).
Values after ≈ are worked out from the molar mass of the structure shown.

Legend:
Salmonella typhimurium [1] = assay: Antibacterial activity against wild type Salmonella typhimurium SL1344 assessed as reduction in bacterial growth by ALM based microdilution assay; type: functional, Salmonella enterica subsp. enterica serovar Typhimurium; settings: Salmonella enterica
Salmonella typhimurium [2] = assay: Antibacterial activity against wild type Salmonella typhimurium SL1344 assessed as reduction in bacterial growth by Muller hinton broth based microdilution assay; type: functional, Salmonella enterica subsp. enterica serovar Typhimurium; settings: Salmonella enterica
Escherichia coli [3] = assay: Antibacterial activity against wild type Escherichia coli MG1655 assessed as inhibition of bacterial growth by Muller hinton broth based microdilution assay; type: functional
Salmonella typhimurium [4] = assay: Antibacterial activity against Salmonella typhimurium harboring delta tolC mutant assessed as bacterial growth inhibition by Muller hinton broth based microdilution assay; type: functional, Salmonella enterica subsp. enterica serovar Typhimurium; settings: Salmonella enterica
Escherichia coli [5] = assay: Antibacterial activity against wild type Escherichia coli MG1655 harboring delta tolC mutant assessed as inhibition of bacterial growth by Muller hinton broth based microdilution assay; type: functional
Bacillus subtilis = assay: Antibacterial activity against Bacillus subtilis 168 assessed as inhibition of bacterial growth by Muller hinton broth based microdilution assay; type: functional
Escherichia coli [6] = assay: Antibacterial activity against wild type Escherichia coli MG1655 harboring delta tolC mutant assessed as inhibition of bacterial growth by MOPS based broth microdilution assay; type: functional
Staphylococcus aureus = assay: Antibacterial activity against Methicillin-resistant Staphylococcus aureus USA300 assessed as inhibition of bacterial growth by Muller hinton broth based microdilution assay; type: functional
Escherichia coli [7] = assay: Antibacterial activity against wild type Escherichia coli MG1655 assessed as inhibition of bacterial growth by MOPS based broth microdilution assay; type: functional

Compound | MIC (Salmonella typhimurium [1]) [mg/L] | MIC (Salmonella typhimurium [2]) [mg/L] | MIC (Escherichia coli [3]) [mg/L] | MIC (Salmonella typhimurium [4]) [mg/L] | MIC (Escherichia coli [5]) [mg/L] | MIC (Bacillus subtilis) [mg/L] | MIC (Escherichia coli [6]) [mg/L] | MIC (Staphylococcus aureus) [mg/L] | MIC (Escherichia coli [7]) [mg/L]
CN1C=C2C[C@@H]3[C@H](C[C@@H](CNC(=O)C4CC4c4ccccc4)CN3C)C3C=CC=C1C23 (some centres not stated) | 200 (≈ 481 µM) | > 200 | > 200 | 64 (≈ 154 µM) | 64 (≈ 154 µM) | 64 (≈ 154 µM) | 10.2 (≈ 24.6 µM) | 64 (≈ 154 µM) | > 200
CN(C)CCCNC(=O)/C=C/c1ccc(C(F)(F)F)cc1 | > 200 | > 200 | > 200 | > 200 |  | > 200 | 128 (≈ 426 µM) | > 200 | > 200
